From ChEMBL document CHEMBL5505954, “Design, synthesis and biological evaluation of the positional isomers of the galactose conjugates able to target hepatocellular carcinoma cells via ASGPR-mediated cellular uptake and cytotoxicity” (Eur J Med Chem, 2024)
Blank lines part the entries; values can stand above or below the molecule they belong to. Calls of active or inactive are those of the source. The rule behind the calls is not given here.

Experiments:
[1] = tested on: Huh-7; test: Cytotoxicity against human Huh-7 cells assessed as inhibition of cell growth incubated for 48 hrs by CCK-8 assay; format: functional, cell-based; conditions: Huh-7, 48 h
[2] = tested on: Bel-7402; test: Cytotoxicity against human Bel-7402 cells assessed as inhibition of cell growth incubated for 48 hrs by CCK-8 assay; format: functional, cell-based; conditions: Bel-7402, 48 h
[3] = tested on: DU-145; test: Cytotoxicity against human DU-145 cells assessed as inhibition of cell growth incubated for 48 hrs by CCK-8 assay; format: functional, cell-based; conditions: DU-145, 48 h
[4] = Drug uptake in human HepG2 cells assessed as increase in fluorescence intensity at 25 uM incubated for 4 hrs by DAPI staining based confocal laser scanning microscopic analysis; format: ADME, cell-based; conditions: hepg2, 4 h
[5] = Drug uptake in human A549 cells assessed as increase in fluorescence intensity at 25 uM incubated for 4 hrs by DAPI staining based confocal laser scanning microscopic analysis; format: ADME, cell-based; conditions: a549, 4 h
[6] = Drug uptake in human HepG2 cells assessed as increase in fluorescence intensity incubated for 4 hrs by DAPI staining based confocal laser scanning microscopic analysis; format: ADME, cell-based; conditions: hepg2, 4 h, dose 0-50 µM
[7] = Drug uptake in human HepG2 cells assessed as increase in fluorescence intensity at 25 uM by DAPI staining based confocal laser scanning microscopic analysis; format: ADME, cell-based; conditions: hepg2, 25 µM, TDE = time-dependent effect, time 0-4 hrs
[8] = Drug uptake in human HepG2 cells assessed as increase in fluorescence intensity at 25 uM at 4 degreeC incubated for 4 hrs by DAPI staining based confocal laser scanning microscopic analysis; format: ADME, cell-based; conditions: hepg2, 4 h
[9] = Drug uptake in human HepG2 cells overexpressing ASGPR assessed as increase in fluorescence intensity at 25 uM incubated for 4 hrs by DAPI staining based confocal laser scanning microscopic analysis; format: ADME, cell-based; conditions: hepg2, 4 h
[10] = Drug uptake in human Huh-7 cells harboring low ASGPR expression assessed as increase in fluorescence intensity at 25 uM incubated for 4 hrs by DAPI staining based confocal laser scanning microscopic analysis; format: ADME, cell-based; conditions: huh-7, 4 h
[11] = Drug uptake in human A549 cells lacking ASGPR expression assessed as increase in fluorescence intensity at 25 uM incubated for 4 hrs by DAPI staining based confocal laser scanning microscopic analysis; format: ADME, cell-based; conditions: a549, 4 h
[12] = Drug uptake in human DU-145 cells lacking ASGPR expression assessed as increase in fluorescence intensity at 25 uM incubated for 4 hrs by DAPI staining based confocal laser scanning microscopic analysis; format: ADME, cell-based; conditions: du-145, 4 h
[13] = tested on: HepG2; test: Competitive binding affinity to ASGPR in human HepG2 cells assessed as reduction in drug uptake pretreated for 0.5 hrs followed by 2-(-5-(-3,3-dimethyl-1-(6-oxo-6-((5-(((2R,3R,4S,5R)-3,4,5,6-tetrahydroxytetrahydro-2H-pyran-2-yl)methoxy)pentyl)amino)hexyl)-5-sulfoindolin-2-ylidene)penta-1,3-dien-1-yl …; format: cell-based; conditions: time 4.5 hrs
[14] = tested on: HepG2; test: Cytotoxicity against human HepG2 cells assessed as inhibition of cell growth incubated for 48 hrs by CCK-8 assay; format: functional, cell-based; conditions: HepG2, 48 h
[15] = tested on: A549; test: Cytotoxicity against human A549 cells assessed as inhibition of cell growth incubated for 48 hrs by CCK-8 assay; format: functional, cell-based; conditions: A549, 48 h
[16] = Cytotoxicity against human HL7702 cells assessed as inhibition of cell growth incubated for 48 hrs by CCK-8 assay; format: toxicity, cell-based; conditions: HL7702 (L02) cells
[17] = Potency index, ratio of test compound IC50 to doxorubicin IC50 for cytotoxicity against human HL7702 cells assessed as inhibition of cell growth incubated for 48 hrs by CCK-8 assay; format: toxicity, cell-based; conditions: HL7702 (L02) cells, read-out: Ratio IC50
[18] = tested on: HepG2; test: Cytotoxicity against human HepG2 cells harboring siRNA mediated ASGPR knockdown assessed as inhibition of cell growth by measuring increase in IC50 at 0.125 to 16 uM incubated for 48 hrs by CCK-8 assay; format: functional, cell-based; conditions: dose 0.125-16 µM

Compound: COc1cccc2c1C(=O)c1c(O)c3c(c(O)c1C2=O)C[C@@](O)(C(=O)CO)C[C@@H]3O[C@H]1C[C@H](N)[C@H](O)[C@H](C)O1 [DOXORUBICIN]
IC50 [1]: 0.12 µM
IC50 [2]: 0.43 µM
IC50 [3]: < 0.1 µM

Drug uptake [4]: Active
Drug uptake [5]: Active
Compound: CC[N+]1=C(/C=C/C=C/C=C2/N(CCCCCC(=O)NCCCCCOC3O[C@H](CO)[C@H](O)[C@H](O)[C@H]3O)c3ccc(S(=O)(=O)O)cc3C2(C)C)C(C)(C)c2cc(S(=O)(=O)[O-])ccc21 (stereo not given in full)

Drug uptake [4]: Active
Drug uptake [5]: Active
Drug uptake [6]: Dose-Dependent Effect
Drug uptake [7]: Tde
Drug uptake [8]: Not Active
Drug uptake [9]: Active
Drug uptake [10]: Not Active
Drug uptake [11]: Not Active
Drug uptake [12]: Not Active
Compound: CC[N+]1=C(/C=C/C=C/C=C2/N(CCCCCC(=O)NCCCCCOC[C@H]3OC(O)[C@H](O)[C@@H](O)[C@H]3O)c3ccc(S(=O)(=O)O)cc3C2(C)C)C(C)(C)c2cc(S(=O)(=O)[O-])ccc21 (stereo not given in full)

Compound: CC(=O)N[C@H]1C(O)O[C@H](CO)[C@H](O)[C@@H]1O (stereo not given in full)
Activity [13]: Dose-Dependent Effect

Compound: OC[C@H]1OC(O)[C@H](O)[C@@H](O)[C@H]1O (stereo not given in full)
Activity [13]: Dose-Dependent Effect

Compound: CC[N+]1=C(/C=C/C=C/C=C2/N(CCCCCC(=O)NCCCCCO[C@H]3C(O)O[C@H](OO)[C@H](O)[C@@H]3O)c3ccc(S(=O)(=O)O)cc3C2(C)C)C(C)(C)c2cc(S(=O)(=O)[O-])ccc21 (stereo not given in full)
Drug uptake [4]: Active
Drug uptake [5]: Active

Drug uptake [4]: Active
Drug uptake [5]: Active
Compound: CC[N+]1=C(/C=C/C=C/C=C2/N(CCCCCC(=O)NCCCCCO[C@@H]3[C@H](O)[C@@H](O)C(O)O[C@@H]3CO)c3ccc(S(=O)(=O)O)cc3C2(C)C)C(C)(C)c2cc(S(=O)(=O)[O-])ccc21 (stereo not given in full)

Compound: COc1cccc2c1C(=O)c1c(O)c3c(c(O)c1C2=O)C[C@@](O)(C(=O)CO)C[C@@H]3O[C@H]1C[C@H](NC(=O)CCCCCO[C@@H]2O[C@H](CO)[C@H](O)[C@H](O)[C@H]2O)[C@H](O)[C@H](C)O1
IC50 [14]: 6.71 µM
IC50 [1]: 1.29 µM
IC50 [2]: 4.67 µM
IC50 [15]: > 10 µM
IC50 [3]: 2.67 µM
IC50 at 48 h [16]: > 10 µM
selectivity ratio at 48 h [17]: > 12
Activity [18]: Active

Drug uptake [4]: Active
Drug uptake [5]: Active
Compound: CC[N+]1=C(/C=C/C=C/C=C2/N(CCCCCC(=O)NCCCCCO[C@H]3[C@@H](O)[C@@H](CO)OC(O)[C@@H]3O)c3ccc(S(=O)(=O)O)cc3C2(C)C)C(C)(C)c2cc(S(=O)(=O)[O-])ccc21 (stereo not given in full)

Compound: COc1cccc2c1C(=O)c1c(O)c3c(c(O)c1C2=O)C[C@@](O)(C(=O)CO)C[C@@H]3O[C@H]1C[C@H](NC(=O)CCCCCO[C@H]2C(O)O[C@H](CO)[C@H](O)[C@@H]2O)[C@H](O)[C@H](C)O1 (stereo not given in full)
IC50 [14]: 3.44 µM
IC50 [1]: 1.14 µM
IC50 [2]: 3.11 µM
IC50 [15]: 9.35 µM
IC50 [3]: 0.88 µM
IC50 at 48 h [16]: 9.68 µM
selectivity ratio at 48 h [17]: > 12
Activity [18]: Active

Compound: COc1cccc2c1C(=O)c1c(O)c3c(c(O)c1C2=O)C[C@@](O)(C(=O)CO)C[C@@H]3O[C@H]1C[C@H](NC(=O)CCCCCOC[C@H]2OC(O)[C@H](O)[C@@H](O)[C@H]2O)[C@H](O)[C@H](C)O1 (stereo not given in full)
IC50 [14]: > 10 µM
IC50 [1]: > 10 µM
IC50 [2]: > 10 µM
IC50 [15]: > 10 µM
IC50 [3]: 6.74 µM
IC50 at 48 h [16]: > 10 µM
selectivity ratio at 48 h [17]: > 12
